“Also recorded” adds a separate entry of the source. Read-outs that look alike come from different tables or passages of the source.
Key:
[1] = molecular target: T1, LPAR5 (Homo sapiens, UniProt Q9H1C0); settings: cited from earlier work
T1 construct: host or cells: CHO cells

[2] = molecular target: T2, LPAR1 (Homo sapiens, UniProt Q92633); set-up: expressed in transfected cells; host or cells: CHO cell membranes; settings: CHO cell membranes; read-out: IC50, inhibition of GTP-gamma-s binding, human LPAR1; cited from earlier work
Target sequence in this assay (Q92633 whole entry): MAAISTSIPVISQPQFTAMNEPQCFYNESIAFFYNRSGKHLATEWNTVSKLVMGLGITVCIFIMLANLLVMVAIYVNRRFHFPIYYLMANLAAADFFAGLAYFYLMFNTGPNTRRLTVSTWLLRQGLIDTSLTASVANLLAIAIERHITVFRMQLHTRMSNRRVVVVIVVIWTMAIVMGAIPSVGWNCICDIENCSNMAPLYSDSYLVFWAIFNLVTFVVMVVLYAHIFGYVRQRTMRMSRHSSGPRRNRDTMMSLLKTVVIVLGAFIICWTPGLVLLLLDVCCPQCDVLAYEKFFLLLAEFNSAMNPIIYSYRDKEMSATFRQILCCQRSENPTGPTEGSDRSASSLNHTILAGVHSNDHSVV

[3] = molecular target: T2, LPAR1; settings: cited from earlier work
Target sequence in this assay (Q92633 whole entry, species assumed): as the sequence (Q92633 whole entry) above

[4] = tested on: GLUTag cells; assay: GLP-1 secretion from cultured GLUTag cells treated with LPA and/or LPAR antagonist; format: cell-based, mouse; settings: for effect of LPAR antagonist alone on GLP-1 levels: 10 μM antagonist alone, 2 h; for rescue of LPA-inhibited GLP-1 secretion by LPAR antagonist: 10 μM antagonist plus 2.5 μM LPA
Description: We have grown GLUTag cells in culture to test effects of various LPA species and the LPAR 1/2/3 inhibitor Ki-16425. GLUTag cells are a well characterized L-cell line derived from a mouse intestinal tumour, which have been widely used to study the regulation of GLP-1. Briefly, GLUTag cells were grown until 80-90% confluent. Complete medium, containing fetal bovine serum, was replaced with medium containing charcoal[…] dextran treated serum, which removes lipids and hormones that could interfere with testing. […] This indicates a direct inhibitory effect of LPA at physiologically relevant levels on GLP-1 secretion by L-cells, and the ability of a commercially available LPAR antagonist to prevent this.
Experimental Protocol. Briefly, GLUTag cells were grown until 70-80% confluent. Complete medium (low glucose DMEM), containing fetal bovine serum, was replaced with medium containing charcoal-dextran treated serum, which removes lipids and hormones that could interfere with testing. Cells were then treated with medium containing either DMSO as vehicle control (0.1% v/v), 2.5 μM LPA, 10 μM LPAR antagonist, or a combination of the LPA species and inhibitors. For cells treated with both LPA plus LPAR inhibitor: cells were pre-treated with LPA for 30 minutes and then 10 uM LPAR inhibitor was added to the respective wells for a further 2 hours. For cells treated with LPA only, or vehicle only, the total treatment time was 2.5 hours. For cells treated with antagonist only, the treatment time was 2 hours.

[5] = tested on: DPP4; assay: DPP4 activity in GLUTag cells (fluorometric kit ab204722); format: cell-based, mouse; settings: for effect of 18:1-LPA combined with LPAR antagonist on DPP4 activity in GLUTag cells: 2.5 uM 18:1-LPA 30 minutes, then 10 uM antagonist 2 hours; for effect of LPAR antagonist alone on DPP4 activity in GLUTag cells: 10 uM antagonist, 2 hours
Description: Briefly, GLUTag cells were grown to produce the recommended quantity needed for the assay according to the manufacturer's protocol (ab204722 Dipeptidyl peptidase IV Activity Assay Kit (Fluorometric)), and then the wells were treated in media containing charcoal-stripped FBS (10%), with either nothing (no treatment control), or vehicle control (0.05% DMSO), or 2.5 uM 18:1-LPA for 30 minutes, and then the inhibitors (as indicated in the graph of FIG. 17) were added to the vehicle wells and the 2.5 uM 18:1-LPA wells at 10 uM concentrations, as indicated on the graph (FIG. 17), for an additional 2 hours. Cells were then harvested according to the manufacturer's protocol, and lysed using reagents from the kit. Charcoal-stripped FBS was used to remove lipids, including LPA, from serum. Experiments were also carried out wherein the FBS was not stripped with charcoal, and the results were not different.
According to the manufacturer, dipeptidyl peptidase IV (DPP4) Activity Assay Kit (Fluorometric) (ab204722) is an assay where DPP4 cleaves a substrate to release a quenched fluorescent group, AMC (7-Amino-4-Methyl Coumarin), which can be easily detected at Ex/Em=360/460 nm. This assay is rapid, simple, sensitive, and reliable, as well as, suitable for high throughput activity screening of DPP4. This kit detects DPP4 activity as low as 3 ρU per well.

[6] = molecular target: T3, LPAR3 (Homo sapiens, UniProt Q9UBY5); settings: cited from earlier work
T3 sequence (Q9UBY5 1-353): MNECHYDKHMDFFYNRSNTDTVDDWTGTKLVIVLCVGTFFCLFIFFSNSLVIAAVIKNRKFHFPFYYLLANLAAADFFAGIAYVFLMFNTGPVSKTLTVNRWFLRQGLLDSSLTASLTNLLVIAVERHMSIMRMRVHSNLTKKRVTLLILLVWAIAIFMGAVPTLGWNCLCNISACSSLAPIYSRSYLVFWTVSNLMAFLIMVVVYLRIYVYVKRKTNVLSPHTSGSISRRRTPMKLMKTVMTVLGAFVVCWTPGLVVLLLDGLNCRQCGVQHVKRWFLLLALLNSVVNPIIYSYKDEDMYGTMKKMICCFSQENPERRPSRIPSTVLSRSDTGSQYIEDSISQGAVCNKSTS

[7] = molecular target: T4, LPAR4 (Homo sapiens, UniProt Q99677); settings: cited from earlier work
T4 construct: host or cells: CHO cells

[8] = molecular target: T5, recombinant mouse LPAR1 (Mus musculus, UniProt P61793); settings: CHO cell membranes; read-out: IC50, inhibition of GTP-gamma-s binding, mouse LPAR1; cited from earlier work
T5 construct: expressed in transfected cells; host or cells: CHO cell membranes

[9] = molecular target: T6, LPAR2 (Homo sapiens, UniProt Q9HBW0); settings: cited from earlier work
[10] = tested on: GLP-1; assay: Circulating GLP-1 in mice injected with LPA, with or without LPAR antagonist pre-treatment; format: in vivo; settings: for rescue of the fall in blood GLP-1 levels caused by LPA: antagonist 30 mg/kg by gavage 10 min before 50 mg/kg 18:1-LPA i.p., serum at 30 min (Examples 6, 8); for blood GLP-1 with antagonist alone versus vehicles: antagonist 30 mg/kg by gavage, no LPA
Description: We injected mice i.p. with vehicle (10% DMSO in isotonic saline) or 50 mg/kg of 1-oleoyl-2-hydroxy-LPA. Half of the mice injected with LPA were pre-injected with 5 mg/kg Ki-16425 10 minutes prior to receiving LPA. Thirty minutes later, samples of blood were taken by cardiac puncture, and circulating active GLP-1 levels in plasma were analysed by enzyme linked immunosorbent assay.
The experimental protocol was as follows: • 1. Mice were administered an LPAR antagonist drug, either by oral gavage (for BMS986020, SARI 00842, AM966, AM095, or H2L51863030), or by i.p. injection (for Ki-16425, and LPA2-antagonistl) at the doses indicated in the table below. • 2. Control mice were administered only the vehicle (a 10% DMSO solution) given via the same route as the comparison drug was administered. • 3. Ten minutes later, mice were injected i.p. either with isotonic saline, or with 50 mg/kg LPA. • 4. Thirty minutes later, mice were euthanized by cervical dyslocation, and blood was collected from the heart for preparation of serum that was stored at −80C until it was analyzed for total GLP-1 concentration by ELISA assay using a GLP-1 enzyme immunoassay kit.

[11] = tested on: Dpp4 gene expression; assay: Dpp4 gene expression in LPA-treated GLUTag cells (real time PCR); format: cell-based, mouse; settings: 2.5 uM 20:4-LPA, 2 hours and up to 2 days, normalised to Gapdh
[12] = molecular target: T4, LPAR4; settings: cited from earlier work; remark: listed apart in the source
[13] = molecular target: T2, LPAR1; set-up: expressed in transfected cells; host or cells: CHO cells; settings: cited from earlier work
Target sequence in this assay (Q92633 whole entry): as the sequence (Q92633 whole entry) above

[14] = tested on: DPP4; assay: DPP4 activity in serum of C57BI/6J mice; format: in vivo
[15] = molecular target: T3, LPAR3; settings: cited from earlier work; remark: listed apart in the source
[16] = molecular target: T1, LPAR5; settings: cited from earlier work; remark: listed apart in the source
[17] = molecular target: T6, LPAR2; settings: cited from earlier work; remark: listed apart in the source

T4 sequence (Q99677 whole entry, species assumed): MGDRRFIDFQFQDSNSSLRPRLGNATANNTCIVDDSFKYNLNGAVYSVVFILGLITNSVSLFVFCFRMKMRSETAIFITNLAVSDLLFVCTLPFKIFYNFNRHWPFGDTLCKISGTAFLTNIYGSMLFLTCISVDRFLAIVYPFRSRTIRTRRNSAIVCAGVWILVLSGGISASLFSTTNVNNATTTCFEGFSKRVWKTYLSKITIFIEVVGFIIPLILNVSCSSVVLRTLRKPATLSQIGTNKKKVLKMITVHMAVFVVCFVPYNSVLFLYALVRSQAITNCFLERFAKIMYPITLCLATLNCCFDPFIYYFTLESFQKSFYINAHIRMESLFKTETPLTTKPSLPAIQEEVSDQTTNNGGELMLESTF
T6 sequence (Q9HBW0 whole entry, species assumed): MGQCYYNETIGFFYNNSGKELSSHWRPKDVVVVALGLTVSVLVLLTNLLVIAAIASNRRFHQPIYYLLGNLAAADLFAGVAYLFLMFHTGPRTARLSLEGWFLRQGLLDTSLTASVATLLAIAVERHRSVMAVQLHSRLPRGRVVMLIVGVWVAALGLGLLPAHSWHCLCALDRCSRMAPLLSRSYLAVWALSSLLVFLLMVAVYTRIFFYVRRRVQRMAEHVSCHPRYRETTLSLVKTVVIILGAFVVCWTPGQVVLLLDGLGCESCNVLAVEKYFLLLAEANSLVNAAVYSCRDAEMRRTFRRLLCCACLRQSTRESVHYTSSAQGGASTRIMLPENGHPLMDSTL
T1 sequence (Q9H1C0 whole entry, species assumed): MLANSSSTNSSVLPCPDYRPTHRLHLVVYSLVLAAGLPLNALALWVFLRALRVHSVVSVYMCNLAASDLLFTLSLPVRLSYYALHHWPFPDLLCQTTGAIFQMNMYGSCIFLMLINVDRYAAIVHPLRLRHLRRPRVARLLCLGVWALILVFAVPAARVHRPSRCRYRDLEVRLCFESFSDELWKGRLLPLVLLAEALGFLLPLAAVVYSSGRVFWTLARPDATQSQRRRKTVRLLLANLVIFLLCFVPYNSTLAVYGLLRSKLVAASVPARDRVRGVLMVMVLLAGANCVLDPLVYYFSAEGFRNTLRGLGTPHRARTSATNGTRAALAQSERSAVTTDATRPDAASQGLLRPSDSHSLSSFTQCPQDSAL
T5 sequence (P61793 whole entry): as the sequence (Q92633 whole entry) above, with I4A, I8S, P22Q, H40Y, I61V, E193D, N194H, I269V, S331N, T335N counted along it

For Cc1noc(-c2ccc(-c3ccc(CC(=O)O)cc3)cc2)c1NC(=O)O[C@H](C)c1ccccc1 [AM095], the IC50 [1] is listed as at least 10000 nM, the IC50 [2] is listed as 980 nM and the IC50 ([3]; read-out: IC50 for LPAR1) is listed as about 25 nM. The “fold greater affinity for LPAR1 than LPAR2-5” value ([3]; selectivity) was over 400 fold, the “effect of LPAR antagonist alone on GLP-1 levels” value [4] was “no significant effect” and the “rescue of LPA-inhibited GLP-1 secretion by LPAR antagonist” value [4] was “complete rescue”. For the same compound, the “effect of 18:1-LPA combined with LPAR antagonist on DPP4 activity in GLUTag cells” value [5] was “did not significantly affect”, the “effect of LPAR antagonist alone on DPP4 activity in GLUTag cells” value [5] was “did not significantly affect” and the “level at which LPAR3 is antagonized” value [6] was “low micromolar levels”. The IC50 ([6]; read-out: IC50 for LPAR3) was at least 10000 nM, the IC50 [7] was at least 10000 nM and the IC50 [8] was 730 nM. The IC50 [9] was at least 10000 nM, the “rescue of the fall in blood GLP-1 levels caused by LPA” value [10] was “completely abrogated; also recorded: Complete rescues” and the “blood GLP-1 with antagonist alone versus vehicles” value [10] was “not significantly different from mice treated only with the vehicles”.
In the case of CCCCC/C=C\C/C=C\C/C=C\C/C=C\CCCC(=O)OCC(O)COP(=O)(O)O (stereo not shown) [20:4-LPA, 1-arachidonoyl-2-hydroxy-LPA], the “change in Dpp4 gene expression” value [11] is reported as “did not significantly change”, the “fold decrease in GLP-1 secretion / GLP-1 levels in media caused by LPA” value ([4]; 2.5 μM LPA species) is reported as about 5 fold and the “decrease in GLP-1 secretion / level caused by LPA (fraction)” value ([4]; 2.5 μM LPA, 2-2.5 h) is reported as “over 2/3”.
In the case of Cc1noc(-c2ccc(-c3ccc(CC(=O)O)cc3)cc2)c1NC(=O)O[C@H](C)c1ccccc1Cl [AM966], the “effect of LPAR antagonist alone on GLP-1 levels” value [4] is reported as “no significant effect”, the “rescue of LPA-inhibited GLP-1 secretion by LPAR antagonist” value [4] is reported as “complete rescue” and the “effect of 18:1-LPA combined with LPAR antagonist on DPP4 activity in GLUTag cells” value [5] is reported as “did not significantly affect”. For the same compound, the “effect of LPAR antagonist alone on DPP4 activity in GLUTag cells” value [5] was “did not significantly affect”, the IC50 ([12]; calcium assay, CHO cells, read-out: IC50, LPAR4) was 7700 nM and the IC50 ([12]; read-out: IC50, LPAR4, calcium release in CHO cells) was 7700 nM. The “level at which LPAR3 is antagonized” value [6] was “low micromolar levels”, the IC50 ([13]; LPA-induced calcium response, CHO cells with LPAR1) was 17 nM and the “fold lower affinity for LPAR2, LPAR3 (than LPAR1)” value ([13]; selectivity) was about 10 fold. The “effect of antagonist on DPP4 activity in mouse serum” value ([14]; 30 mg/kg by gavage) was “did not significantly affect; also recorded: lack of effect; also recorded: not significantly affected”, the “effect of 18:1-LPA combined with antagonist on DPP4 activity in mouse serum” value ([14]; antagonist 30 mg/kg by gavage then 50 mg/kg 18:1-LPA) was “did not affect” and the IC50 ([15]; calcium assay, CHO cells, read-out: IC50, LPAR3) was 1600 nM. The IC50 ([15]; read-out: IC50, LPAR3, calcium release in CHO cells) was 1600 nM, the IC50 ([16]; calcium assay, CHO cells, read-out: IC50, LPAR5) was 8600 nM and the IC50 ([16]; read-out: IC50, LPAR5, calcium release in CHO cells) was 8600 nM. For the same compound, the IC50 ([17]; calcium assay, CHO cells, read-out: IC50, LPAR2) was 1700 nM, the IC50 ([17]; read-out: IC50, LPAR2, calcium release in CHO cells) was 1700 nM and the “rescue of the fall in blood GLP-1 levels caused by LPA” value [10] was “completely abrogated; also recorded: Complete rescues; also recorded: restored to normal levels”. For the same compound, the “blood GLP-1 with antagonist alone versus vehicles” value [10] was “indistinguishable from mice treated only with the vehicles”.
